Measurements published in ChEMBL document CHEMBL1155289, “Stimulatory effect of apigenin-6-C-beta-L-fucopyranoside on insulin secretion and glycogen synthesis” (2009).

Columns and labels:
Type in all cases: functional
[1] = tested on: Rattus norvegicus; test: Antidiabetic activity against glucose loaded Wistar rat assessed as serum glucose level at 10 mg/kg, po after 60 mins by oral glucose tolerance test
[2] = tested on: Rattus norvegicus; test: Antidiabetic activity against glucose loaded Wistar rat assessed as serum glucose level at 10 mg/kg, po by oral glucose tolerance test
[3] = tested on: Rattus norvegicus; test: Antidiabetic activity against glucose loaded Wistar rat assessed as serum glucose level at 10 mg/kg, po after 15 mins by oral glucose tolerance test
[4] = tested on: Rattus norvegicus; test: Antidiabetic activity against glucose loaded Wistar rat assessed as serum glucose level at 10 mg/kg, po after 30 mins by oral glucose tolerance test

`Cc1cnc(C(=O)NCCc2ccc(S(=O)(=O)NC(=O)NC3CCCCC3)cc2)cn1` [GLIPIZIDE] showed an Activity [1] of 123 mg/dL, an Activity [2] of 120 mg/dL and an Activity [3] of 160 mg/dL. The Activity [4] was 143 mg/dL.
